Here are results for 17 molecules from patent US10479795B2 (Incyte Corporation, priority 2016, dated 2019).

For assay [1], the target named is PI3Kγ (p110γ) Recombinant Human Protein (Homo sapiens (Human), UniProt P48736). Nature of the assay: PI3K-γ Scintillation Proximity Assay. The assay is classed as biochemical. The settings on record: read-out: PI3Kγ IC50. Put shortly: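 Radiometric SPA readout: […] bound to WGA beads after overnight shaking, IC50 derived from % activity of DMSO control. Reaction used human p110γ, 2 μM ATP, 20 μM PIP2, pH 6.7 MOPS buffer with MgCl2, DTT, CHAPS, 2% DMSO, room temperature.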
Sequence of PI3Kγ (p110γ) Recombinant Human Protein (P48736 whole entry): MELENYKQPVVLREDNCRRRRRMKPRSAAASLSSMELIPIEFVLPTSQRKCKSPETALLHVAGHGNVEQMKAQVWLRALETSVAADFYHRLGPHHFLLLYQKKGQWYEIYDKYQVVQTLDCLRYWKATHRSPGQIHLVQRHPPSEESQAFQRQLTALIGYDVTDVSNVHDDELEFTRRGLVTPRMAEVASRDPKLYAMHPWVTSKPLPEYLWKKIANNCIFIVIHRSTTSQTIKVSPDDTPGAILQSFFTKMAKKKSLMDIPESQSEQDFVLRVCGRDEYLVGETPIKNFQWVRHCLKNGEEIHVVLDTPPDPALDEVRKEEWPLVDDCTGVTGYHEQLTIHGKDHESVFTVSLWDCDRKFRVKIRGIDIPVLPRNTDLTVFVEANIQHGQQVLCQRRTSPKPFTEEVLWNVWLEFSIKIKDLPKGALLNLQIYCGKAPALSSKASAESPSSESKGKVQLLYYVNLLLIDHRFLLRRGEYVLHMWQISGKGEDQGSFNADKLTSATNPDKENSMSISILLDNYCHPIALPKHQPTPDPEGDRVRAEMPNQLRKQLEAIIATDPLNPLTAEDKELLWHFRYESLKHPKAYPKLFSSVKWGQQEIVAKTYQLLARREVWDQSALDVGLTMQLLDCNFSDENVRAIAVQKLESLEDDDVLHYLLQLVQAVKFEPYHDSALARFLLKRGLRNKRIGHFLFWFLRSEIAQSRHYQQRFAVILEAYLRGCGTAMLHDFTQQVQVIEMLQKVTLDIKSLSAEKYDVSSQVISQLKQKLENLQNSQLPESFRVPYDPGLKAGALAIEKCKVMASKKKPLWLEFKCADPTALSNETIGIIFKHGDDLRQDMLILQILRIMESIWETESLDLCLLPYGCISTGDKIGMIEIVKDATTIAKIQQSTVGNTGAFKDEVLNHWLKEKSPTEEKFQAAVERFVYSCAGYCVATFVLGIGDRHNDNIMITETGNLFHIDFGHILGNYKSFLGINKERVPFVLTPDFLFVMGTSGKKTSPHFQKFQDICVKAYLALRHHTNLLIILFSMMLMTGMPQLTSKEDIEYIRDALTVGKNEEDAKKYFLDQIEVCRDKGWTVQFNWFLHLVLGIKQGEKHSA
(In general: In a scintillation proximity assay essentially only radioactivity close to the scintillant gives light.)

The test system of assay [2] is Phosphorylated Ribosomal Protein S6 (RPS6). Nature of the assay: THP-1 RPS6 ELISA Assay. It counts as cell-based, Human. As to conditions: THP-1 cells, read-out: PI3Kγ_THP1_RPS6_ELISA IC50. A digest of the protocol:
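IC50 values come from a curve of percent inhibition against log compound concentration, using phospho-RPS6 ELISA (450 nm) on THP-1 lysates. Cells were serum-starved overnight, exposed to compound for 2 h at 37 °C, then challenged 15 min with 10 nM MCP-1.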
On the technique in general: In an ELISA, binding on a coated surface is turned into a signal by an enzyme label.

In assay [3] the target is PI3Kδ (p110δ/p85α) Recombinant Human Protein (Homo sapiens (Human), UniProt O00329). Nature of the assay: PI3Kδ Scintillation Proximity Assay. It counts as biochemical. Put shortly:
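Radiometric read-out: 33P-labelled PIP3 product captured on WGA SPA beads and counted, with IC50 fitted from percent activity relative to DMSO control. Enzyme (3.4 nM) was incubated 120 min at room temperature with 20 μM PIP2 and 2 μM ATP at pH 6.7, 2% DMSO.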

pIC50: −log10 of the molar value. Where a name gives a salt, the structure may show the parent alone. Read-outs that look alike come from different tables or passages of the source.

Sequence of PI3Kδ (p110δ/p85α) Recombinant Human Protein (O00329 whole entry): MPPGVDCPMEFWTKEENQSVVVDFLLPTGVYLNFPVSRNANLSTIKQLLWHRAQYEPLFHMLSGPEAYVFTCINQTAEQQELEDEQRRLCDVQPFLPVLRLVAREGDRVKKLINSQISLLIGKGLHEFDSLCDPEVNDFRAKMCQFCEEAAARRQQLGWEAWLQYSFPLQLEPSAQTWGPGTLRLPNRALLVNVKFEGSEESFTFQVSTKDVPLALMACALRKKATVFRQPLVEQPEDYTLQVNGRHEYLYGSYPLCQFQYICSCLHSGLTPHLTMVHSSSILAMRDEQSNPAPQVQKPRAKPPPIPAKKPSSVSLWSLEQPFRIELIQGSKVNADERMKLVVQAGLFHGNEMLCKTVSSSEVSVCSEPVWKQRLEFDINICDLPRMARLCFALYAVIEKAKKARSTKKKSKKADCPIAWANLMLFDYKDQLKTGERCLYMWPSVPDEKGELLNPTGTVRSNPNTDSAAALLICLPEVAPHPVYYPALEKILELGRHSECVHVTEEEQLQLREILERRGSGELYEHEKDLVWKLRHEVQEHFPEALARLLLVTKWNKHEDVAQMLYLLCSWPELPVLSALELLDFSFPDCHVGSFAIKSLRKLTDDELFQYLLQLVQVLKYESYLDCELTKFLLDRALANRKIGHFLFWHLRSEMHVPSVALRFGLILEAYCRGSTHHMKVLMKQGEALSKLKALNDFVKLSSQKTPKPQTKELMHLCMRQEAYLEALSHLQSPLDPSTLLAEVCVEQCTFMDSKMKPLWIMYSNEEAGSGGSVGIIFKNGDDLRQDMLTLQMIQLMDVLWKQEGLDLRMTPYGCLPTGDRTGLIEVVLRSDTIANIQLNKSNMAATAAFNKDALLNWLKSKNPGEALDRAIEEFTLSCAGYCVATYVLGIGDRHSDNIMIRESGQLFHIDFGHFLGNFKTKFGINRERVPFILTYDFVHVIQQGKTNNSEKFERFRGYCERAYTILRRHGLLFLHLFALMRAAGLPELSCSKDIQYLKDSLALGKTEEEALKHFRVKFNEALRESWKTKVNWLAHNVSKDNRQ
Sequence of PI3Kδ (p110δ/p85α) Recombinant Human Protein (P27986 whole entry partner): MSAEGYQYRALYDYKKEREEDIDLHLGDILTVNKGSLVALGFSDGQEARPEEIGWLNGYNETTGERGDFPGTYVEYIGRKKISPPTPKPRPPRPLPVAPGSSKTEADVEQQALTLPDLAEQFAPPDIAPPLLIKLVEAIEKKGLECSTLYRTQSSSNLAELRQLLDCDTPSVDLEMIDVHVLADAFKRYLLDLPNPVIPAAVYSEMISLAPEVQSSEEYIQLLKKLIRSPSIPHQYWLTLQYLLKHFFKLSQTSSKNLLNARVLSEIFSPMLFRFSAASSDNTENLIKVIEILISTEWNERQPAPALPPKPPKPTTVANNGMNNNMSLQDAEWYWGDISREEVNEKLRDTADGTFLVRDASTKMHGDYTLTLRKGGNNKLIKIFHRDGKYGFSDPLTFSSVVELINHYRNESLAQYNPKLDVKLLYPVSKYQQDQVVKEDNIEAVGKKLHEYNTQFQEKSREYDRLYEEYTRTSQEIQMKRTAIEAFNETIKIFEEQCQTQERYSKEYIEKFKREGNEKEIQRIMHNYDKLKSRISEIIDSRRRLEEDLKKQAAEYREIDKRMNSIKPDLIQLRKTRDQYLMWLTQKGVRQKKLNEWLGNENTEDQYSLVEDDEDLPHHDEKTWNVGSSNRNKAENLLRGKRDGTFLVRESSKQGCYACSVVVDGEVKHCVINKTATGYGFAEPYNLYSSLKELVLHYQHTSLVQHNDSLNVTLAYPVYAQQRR

Regarding `Cc1ccc(NS(=O)(=O)C2CCOCC2)cc1-c1cnc2c(N)nccn12` [Example 471, N-(3-(8-Aminoimidazo[1,2-a]pyrazin-3-yl)-4-methylphenyl)tetrahydro-2H-pyran-4-sulfonamide], the pIC50 in assay [1] was 6.30 to 7.00; in assay [2] (Homo sapiens) it was < 6.00; in assay [3], 5.70 to 6.30.

As to `Cc1ccc(S(=O)(=O)N2CC[C@@H](F)[C@@H](N)C2)cc1-c1cnc2c(N)nc(C(F)(F)F)cn12` [Example 308, 3-(5-(((3S,4R)-3-amino-4-fluoropiperidin-1-yl)sulfonyl)-2-methylphenyl)-6-(trifluoromethyl)imidazo[1,2-a]pyrazin-8-amine], the pIC50 in assay [1], in assay [2] (Homo sapiens) and in assay [3] was > 7.00 each time.

As to `Cc1ccc(S(=O)(=O)N2CC[C@H](O)C2)cc1-c1cnc2c(N)nc(-c3ccc(CO)cc3F)cn12` [Example 506, (S)-1-((3-(8-Amino-6-(2-fluoro-4-(hydroxymethyl)phenyl)imidazo[1,2-a]pyrazin-3-yl)-4-methylphenyl)sulfonyl)pyrrolidin-3-ol], the pIC50 in assay [1], in assay [2] (Homo sapiens) and in assay [3] was > 7.00 in each case.

On to `Cc1nc(N)c2ncc(-c3ccc(F)c(S(=O)(=O)NC45CCC(C#N)(C4)C5)c3)n2n1` [Example 387, 5-(4-Amino-2-methylimidazo[1,2-f][1,2,4]triazin-7-yl)-N-(4-cyanobicyclo[2.1.1]hexan-1-yl)-2-fluorobenzenesulfonamide trifluoroacetate salt], for which the pIC50 was > 7.00 in assay [1], > 7.00 in assay [2] and 6.30 to 7.00 in assay [3].

Turning to `Cc1ccc(S(=O)(=O)NC2CC(F)(F)C2)cc1-c1cnc2c(N)nc(C(=O)NC3CCC3)cn12` [Example 448, 8-amino-N-cyclobutyl-3-(5-(N-(3,3-difluorocyclobutyl)sulfamoyl)-2-methylphenyl)imidazo[1,2-a]pyrazine-6-carboxamide trifluoroacetate salt], the figures for the pIC50 in assay [1], in assay [2] (Homo sapiens) and in assay [3] were > 7.00, 6.30 to 7.00 and 5.70 to 6.30, respectively.

With `Cc1ccc(S(=O)(=O)NC23CCC(C(C)(C)O)(CC2)C3)cc1-c1cnc2c(N)ncnn12` [Example 431, 3-(4-Aminoimidazo[1,2-f][1,2,4]triazin-7-yl)-N-(4-(2-hydroxypropan-2-yl)bicyclo[2.2.1]heptan-1-yl)-4-methylbenzenesulfonamide trifluoroacetate salt], the pIC50 in assay [1] is > 7.00; in assay [2] (Homo sapiens), 6.30 to 7.00; in assay [3], 6.30 to 7.00.

In the case of `Cc1ccc(S(=O)(=O)NC23CC(N4CCOCC4)(C2)C3)cc1-c1cnc2c(N)nc(C(F)(F)F)cn12` [Example 296, 3-(8-Amino-6-(trifluoromethyl)imidazo[1,2-a]pyrazin-3-yl)-4-methyl-N-(3-morpholinobicyclo[1.1.1]pentan-1-yl)benzenesulfonamide trifluoroacetate salt], the pIC50 in assay [1] is > 7.00; in assay [2] (Homo sapiens) it was 6.30 to 7.00; in assay [3] it was 5.70 to 6.30.

As for `Cc1ccc(S(=O)(=O)N[C@H]2COC[C@@H]2O)cc1-c1cnc2c(N)ncnn12` [Example 123, 3-(4-aminoimidazo[2,1-f][1,2,4]triazin-7-yl)-N-[(3S,4R)-4-hydroxytetrahydrofuran-3-yl]-4-methylbenzenesulfonamide], the pIC50 in assay [1] was > 7.00; in assay [2] (Homo sapiens), 6.00 to 6.30; in assay [3] it was 5.70 to 6.30.

As to `Cc1ccc(S(=O)(=O)NC23CC(c4cnco4)(C2)C3)cc1-c1cnc2c(N)nc(C(F)(F)F)cn12` [Example 279, 3-(8-Amino-6-(trifluoromethyl)imidazo[1,2-a]pyrazin-3-yl)-4-methyl-N-(3-(oxazol-5-yl)bicyclo[1.1.1]pentan-1-yl)benzenesulfonamide trifluoroacetate salt], the pIC50 in assay [1], in assay [2] (Homo sapiens) and in assay [3] was > 7.00 throughout.

For `Cc1ccc(S(=O)(=O)N[C@H]2CC[C@H](CO)OC2)cc1-c1cnc2c(N)ncnn12` [Example 62, 3-(4-Aminoimidazo[2,1-f][1,2,4]triazin-7-yl)-N-[(3S,6R)-6-(hydroxymethyl)tetrahydro-2H-pyran-3-yl]-4-methylbenzenesulfonamide], the figures for the pIC50 in assay [1], in assay [2] (Homo sapiens) and in assay [3] were > 7.00, 6.30 to 7.00 and 6.30 to 7.00, respectively.

Take `Cc1nc2c(N)ncnn2c1-c1cccc(S(=O)(=O)NC23CCC(C#N)(C2)C3)c1` [Example 258, 3-(4-Amino-6-methylimidazo[2,1-f][1,2,4]triazin-7-yl)-N-(4-cyanobicyclo[2.1.1]hexan-1-yl)benzenesulfonamide trifluoroacetate salt]: the pIC50 in assay [1] is > 7.00; in assay [2] (Homo sapiens) it was 6.00 to 6.30; in assay [3], 6.30 to 7.00.

As for `Cc1ccc(S(=O)(=O)NC23CC(C(F)(F)F)(C2)C3)cc1-c1cnc2c(N)ncnn12` [Example 97, 3-(4-Aminoimidazo[1,2-f][1,2,4]triazin-7-yl)-4-methyl-N-(3-(trifluoromethyl)bicyclo[1.1.1]pentan-1-yl)benzenesulfonamide trifluoroacetate salt], the pIC50 in assay [1] was > 7.00; in assay [2], 6.30 to 7.00; in assay [3] it was 6.30 to 7.00.

On to `Cc1ccc(S(=O)(=O)N2CCOCC2(C)C)cc1-c1cnc2c(N)ncnn12` [Example 156, 7-(5-((3,3-dimethylmorpholino)sulfonyl)-2-methylphenyl)imidazo[2,1-f][1,2,4]triazin-4-amine], for which the values for the pIC50 in assay [1], in assay [2] (Homo sapiens) and in assay [3] were > 7.00, 6.00 to 6.30 and 5.70 to 6.30, respectively.

For the molecule `C[C@]1(O)CC[C@H](NS(=O)(=O)c2cc(-c3cnc4c(N)nccn34)ccc2F)CC1` [Example 359, 5-(8-aminoimidazo[1,2-a]pyrazin-3-yl)-2-fluoro-N-((1r,4r)-4-hydroxy-4-methylcyclohexyl)benzenesulfonamide], the pIC50 in assay [1] is > 7.00; in assay [2], < 6.00; in assay [3], 6.30 to 7.00.

Take `Nc1nc(C(F)(F)F)nn2c(-c3ccc(F)c(S(=O)(=O)NC45CCC(CO)(C4)C5)c3)cnc12` [Example 418, 5-(4-Amino-2-(trifluoromethyl)imidazo[1,2-f][1,2,4]triazin-7-yl)-2-fluoro-N-(4-(hydroxymethyl)bicyclo[2.1.1]hexan-1-yl)benzenesulfonamide]: the pIC50 in assay [1] was > 7.00; in assay [2], < 6.00; in assay [3] it was 6.30 to 7.00.

For `Cc1ccc(S(=O)(=O)NCCN2CCCC2=O)cc1-c1cnc2c(N)ncnn12` [Example 138, 3-(4-aminoimidazo[2,1-f][1,2,4]triazin-7-yl)-4-methyl-N-(2-(2-oxopyrrolidin-1-yl)ethyl)benzenesulfonamide], the pIC50 in assay [1] is > 7.00; in assay [2] (Homo sapiens), < 6.00; in assay [3] it was 5.70 to 6.30.

Take `Cc1ccc(S(=O)(=O)NC23COC(CO)(C2)C3)cc1-c1cnc2c(N)nc(C(F)(F)F)cn12` [Example 428, 3-(8-amino-6-(trifluoromethyl)imidazo[1,2-a]pyrazin-3-yl)-N-(1-(hydroxymethyl)-2-oxabicyclo[2.1.1]hexan-4-yl)-4-methylbenzenesulfonamide trifluoroacetate salt]: the pIC50 in assay [1] is > 7.00; in assay [2] (Homo sapiens), 6.30 to 7.00; in assay [3], 6.30 to 7.00.

By pIC50 is commonly meant −log10 of the IC50, conventionally taken in molar units.
